In ChEMBL document CHEMBL3039007, “Structure-based identification of OATP1B1/3 inhibitors” (Mol Pharmacol, 2013) one finds residual activity data, which are given here for 35 compounds.

The target of series [1] is T1, Solute carrier organic anion transporter family member 1B3 (Homo sapiens, UniProt Q9NPD5).
T1 sequence (Q9NPD5 whole entry): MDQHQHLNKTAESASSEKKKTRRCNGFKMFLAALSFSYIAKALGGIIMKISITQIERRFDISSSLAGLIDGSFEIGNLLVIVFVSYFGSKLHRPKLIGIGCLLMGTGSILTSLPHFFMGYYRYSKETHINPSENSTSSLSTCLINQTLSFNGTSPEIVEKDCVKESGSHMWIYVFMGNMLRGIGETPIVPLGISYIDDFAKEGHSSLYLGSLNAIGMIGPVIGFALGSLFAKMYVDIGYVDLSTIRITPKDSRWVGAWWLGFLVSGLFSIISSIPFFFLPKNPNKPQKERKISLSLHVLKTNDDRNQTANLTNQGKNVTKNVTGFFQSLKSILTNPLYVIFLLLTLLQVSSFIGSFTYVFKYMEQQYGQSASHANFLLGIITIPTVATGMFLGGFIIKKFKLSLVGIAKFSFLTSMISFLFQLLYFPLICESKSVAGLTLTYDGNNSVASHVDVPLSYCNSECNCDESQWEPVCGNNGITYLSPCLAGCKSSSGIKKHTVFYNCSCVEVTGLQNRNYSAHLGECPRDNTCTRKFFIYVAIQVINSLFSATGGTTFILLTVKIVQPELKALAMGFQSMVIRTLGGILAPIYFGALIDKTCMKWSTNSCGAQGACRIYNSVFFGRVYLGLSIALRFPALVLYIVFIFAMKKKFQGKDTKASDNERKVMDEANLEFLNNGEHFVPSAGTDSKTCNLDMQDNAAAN
The settings on record: chinese hamster, cho, 10 µM.

Series [2] deals with T2, Solute carrier organic anion transporter family member 1B1 (Homo sapiens, UniProt Q9Y6L6).
T2 sequence (Q9Y6L6 whole entry): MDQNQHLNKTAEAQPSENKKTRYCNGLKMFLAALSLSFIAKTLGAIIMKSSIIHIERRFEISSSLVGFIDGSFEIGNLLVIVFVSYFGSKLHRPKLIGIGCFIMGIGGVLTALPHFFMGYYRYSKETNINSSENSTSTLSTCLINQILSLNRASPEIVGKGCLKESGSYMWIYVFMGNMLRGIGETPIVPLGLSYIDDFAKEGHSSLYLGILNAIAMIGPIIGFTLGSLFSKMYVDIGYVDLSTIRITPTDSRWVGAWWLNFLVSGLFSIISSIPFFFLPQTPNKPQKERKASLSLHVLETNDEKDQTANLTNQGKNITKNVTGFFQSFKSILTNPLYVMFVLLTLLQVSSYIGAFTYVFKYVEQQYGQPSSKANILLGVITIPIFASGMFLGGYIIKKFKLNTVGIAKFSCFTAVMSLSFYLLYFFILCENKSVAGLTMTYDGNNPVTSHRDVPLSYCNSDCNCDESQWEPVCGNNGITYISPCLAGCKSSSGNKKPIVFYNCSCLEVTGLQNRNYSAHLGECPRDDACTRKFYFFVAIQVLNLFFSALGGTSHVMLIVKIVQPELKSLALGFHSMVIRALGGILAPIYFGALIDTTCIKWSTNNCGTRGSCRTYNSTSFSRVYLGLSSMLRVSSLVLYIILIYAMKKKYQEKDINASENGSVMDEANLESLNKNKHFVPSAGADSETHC
The settings on record: chinese hamster, cho, 10 µM.

Turning to `C=CCSCC=C` [DIALLYL SULFIDE], the residual activity (in general, the signal under treatment as a percentage of the control signal) in series [1] came to 95.82%; in series [2] it was 82.5%.
The matching figures for `CC1=NS(=O)(=O)c2cc(Cl)ccc2N1` [DIAZOXIDE]: 91.61% and 91.81%.
In the same order, the values of `NC[C@@H]1CC[C@@H](N)[C@@H](O[C@H]2[C@H](O)[C@@H](O[C@H]3O[C@H](CO)[C@@H](O)[C@H](N)[C@H]3O)[C@H](N)C[C@@H]2N)O1` [DIBEKACIN] are 96.4% and 88.15%.
The matching figures for `c1ccc2c(c1)sc1ccccc12` [DIBENZOTHIOPHENE]: 93.83% and 114.7%.
On to `O=C(CC(=O)c1ccccc1)c1ccccc1` [DIBENZOYLMETHANE], for which the results for the residual activity in series [1] and in series [2] were 118.4% and 129.7%, respectively.
With `CCCCOc1cc(C(=O)NCCN(CC)CC)c2ccccc2n1.Cl` [DIBUCAINE HYDROCHLORIDE], the residual activity stood at 94.35% in series [1] and 103.4% in series [2].
In the same order, the values of `CCCCOC(=O)c1ccccc1C(=O)OCCCC` [DIBUTYL PHTHALATE] are 124.6% and 119.5%.
In the same order, the values of `N#Cc1c(Cl)cccc1Cl` [DICHLOBENIL] are 97.91% and 87.7%.
Regarding `ClC(Cl)=C(c1ccc(Cl)cc1)c1ccc(Cl)cc1` [DICHLORODIPHENYLDICHLOROETHYLENE], the residual activity in series [1] amounted to 103.2%; in series [2], 94.96%.
In the same order, the values of `O=C([O-])Cc1ccccc1Nc1c(Cl)cccc1Cl.[Na+]` [DICLOFENAC SODIUM] are 71.01% and 110.6%.
As to `COc1c2ccccc2nc2occc12` [DICTAMNINE], the residual activity is on record as 118.6% in series [1] and 151.5% in series [2].
As to `O=c1oc2ccccc2c(O)c1Cc1c(O)c2ccccc2oc1=O` [DICUMAROL], the residual activity in series [1] was determined as 19.32%; in series [2], 33.08%.
As for `CCN(CC)CCOC(=O)C1(C2CCCCC2)CCCCC1.Cl` [DICYCLOMINE HYDROCHLORIDE], the residual activity was determined as 105.3% in series [1] and 106.9% in series [2].
The matching figures for `C/C=C(/C(=C/C)c1ccc(O)cc1)c1ccc(O)cc1` [DIENESTROL]: 61.94% and 48.7%.
The matching figures for `CCN(CC)C(=O)N1CCN(C)CC1.O=C(O)CC(O)(CC(=O)O)C(=O)O` [DIETHYLCARBAMAZINE CITRATE]: 81.28% and 95.54%.
Take `CCN(CC)C(=O)c1cccc(C)c1` [DIETHYLTOLUAMIDE]: the residual activity stood at 107.2% in series [1] and 108.7% in series [2].
The matching figures for `O=C(O)c1cc(-c2ccc(F)cc2F)ccc1O` [DIFLUNISAL]: 87.47% and 201%.
In the same order, the values of `COc1cc(OC)c(-c2c(OC)cc(OC)cc2OC)c(OC)c1` [DIFUCOL HEXAMETHYL ETHER] are 105.6% and 117.5%.
In the same order, the values of `C[C@@H]1CC[C@@]2(OC1)O[C@H]1[C@@H](O)[C@H]3[C@@H]4CC[C@H]5C[C@@H](O[C@@H]6O[C@H](CO)[C@H](O[C@@H]7O[C@H](CO)C(O)[C@H](O[C@@H]8OC[C@@H](O)[C@H](O)[C@H]8O)[C@H]7O[C@@H]7O[C@H](CO)[C@H](O)[C@H](O[C@@H]8O[C@H](CO)[C@@H](O)[C@H](O)[C@H]8O)[C@H]7O)[C@H](O)[C@H]6O)[C@H](O)C[C@]5(C)[C@H]4CC[C@]3(C)[C@H]1[C@@H]2C` (stereo not given in full) [DIGITONIN] are 98.34% and 76.09%.
With `C[C@H]1O[C@@H](O[C@H]2[C@@H](O)C[C@H](O[C@H]3[C@@H](O)C[C@H](O[C@H]4CC[C@@]5(C)[C@H](CC[C@@H]6[C@@H]5CC[C@]5(C)[C@@H](C7=CC(=O)OC7)CC[C@]65O)C4)O[C@@H]3C)O[C@@H]2C)C[C@H](O)[C@@H]1O` [DIGITOXIN], the residual activity in series [1] came out at 66.85%; in series [2], 56.48%.
The matching figures for `CC(C)C1COc2cc3oc(=O)ccc3cc2O1` (stereo not given) [DIHYDRO-OBLIQUIN]: 74.86% and 74.37%.
In the case of `COc1c(C(=O)O)ccc2c1CCC(C)(C)O2` [DIHYDRO-beta-TUBAIC ACID], the residual activity was 102.8% in series [1] and 98.02% in series [2].
In the same order, the values of `C=C1CCC(=O)C(C)CCC2C1CC2(C)C` (stereo not given) [DIHYDROCARYOPHYLLEN-5-ONE] are 39.09% and 24.21%.
Take `Cc1c(O)c(O)cc2c1CC=C1[C@@]2(C)CC[C@@]2(C)[C@@H]3C[C@](C)(C(=O)O)CC[C@]3(C)CC[C@]12C` [DIHYDROCELASTROL]: the residual activity in series [1] was determined as 40.35%; in series [2] it was 70.52%.
For `CN1C[C@H](C(=O)N[C@]2(C)O[C@@]3(O)[C@@H]4CCCN4C(=O)[C@H](Cc4ccccc4)N3C2=O)C[C@@H]2c3cccc4[nH]cc(c34)C[C@H]21.CS(=O)(=O)O` [DIHYDROERGOTAMINE MESYLATE], the figures for the residual activity in series [1] and in series [2] were 10.07% and 27.06%, respectively.
The matching figures for `COC(=O)C[C@H]1C(C)(C)[C@@H](OC(C)=O)[C@@H]2CC3C4CC(=O)O[C@@H](c5ccoc5)[C@]4(C)CCC3[C@@]1(C)C2=O` (stereo not given in full) [DIHYDROFISSINOLIDE]: 77.17% and 71.88%.
In the case of `CC(=O)O[C@@H]1C[C@H]2C(C)(C)C(=O)CC[C@]2(C)[C@H]2CC[C@@]3(C)[C@H](c4ccoc4)OC(=O)[C@H]4O[C@]43[C@@]21C` [DIHYDROGEDUNIN], the results for the residual activity in series [1] and in series [2] were 62.45% and 35.54%, respectively.
The matching figures for `CCCCCC1C(=O)CCC1CC(=O)OC` (stereo not given) [DIHYDROJASMONIC ACID, METHYL ESTER]: 82.72% and 109.5%.
Take `CCCCCC1C(=O)CCC1CC(=O)O` (stereo not given) [DIHYDROJASMONIC ACID]: the residual activity turned out to be 102.5% in series [1] and 113.7% in series [2].
In the same order, the values of `COc1c(CC(=O)c2cc3c(cc2O)OC(C)(C)C(O)C3)ccc2c1C=CC(C)(C)O2` (stereo not given) [DIHYDROMUNDULETONE] are 58.7% and 30.26%.
With `Cc1cc(=O)c2c(O)c3c(cc2o1)OCC(C)CC3` (stereo not given) [DIHYDROPTAEROXYLIN], the residual activity in series [1] is listed as 85.01%; in series [2], 94.2%.
The matching figures for `COc1ccc(-c2c(O)c3c(OC)c4c(cc3oc2=O)OC(C)(C)CC4)cc1` [DIHYDROROBUSTIC ACID]: 70.94% and 73.61%.
In the case of `COc1cc2c(cc1OC)[C@@H]1C(=O)c3ccc4c(c3O[C@@H]1CO2)CC(C(C)C)O4` (stereo not given in full) [DIHYDROROTENONE], the residual activity was 63.71% in series [1] and 53.61% in series [2].
Regarding `CC(=O)O[C@@H]1c2c(ccc3ccc(=O)oc23)OC(C)(C)[C@@H]1OC(=O)CC(C)C` [DIHYDROSAMIDIN], the values for the residual activity in series [1] and in series [2] were 104.1% and 75.05%, respectively.
`Cc1cc(=O)c2c(O)c3c(cc2o1)OC(C)(C)CC3` [DIHYDROSPATHELIACHROMENE]: the residual activity in series [1] was found to be 116.8%; in series [2], 127.1%.
